This is an account of results in US9067937B2 (priority 2012, dated 2015).

Counter-ions that a name gives are not always drawn. Like-named read-outs stand apart in the source and are kept apart here.

In assay [1] the test system is T47D cells. Description: Cell-based assay, anti-proliferative activity (Cell Counting Kit-8, 72 hours). The arrangement: species or system human. Conditions: read-out: IC50 (μM) (T47D). As to the method: (§1) Active candidate inhibitors against MELK were evaluated for their target-specific cytotoxicity using 22Rv1, T47D, A549, DU4475 and HT-1197 cells was used for negative control. 100 micro-L of cell suspension was seeded onto 96-well microtiter plate (ViewPlate-96FTC, PerkinElmer). The initial cell concentration of 22Rv1, T47D, A549, DU4475, and HT1197 were 3,000 cells/well, 2,000 cells/well and 2,500 cells/well, respectively. Cellular growth was determined using Cell Counting Kit-8 (DOJINDO) at 72 hours after the exposure of the candidate inhibitors. […] Accurate IC50 values were calculated as described previously.

The subject of assay [2] is DU4475 cells. The description is as above. The arrangement: species or system human. The following applies: read-out: IC50 (μM) (DU4475). Here is the method: as §1
In assay [3] the test system is A549 cells. The description is as above. The arrangement: species or system human. Conditions: read-out: IC50 (μM) (A549). Here is the method:
as §1

The subject of assay [4] is 22Rv1 cells. The assay is described as above. More on the design: species or system human. The following applies: read-out: IC50 (μM) (22Rvl). Here is the method: as §1
The subject of assay [5] is HT1197 cells. As to the kind of experiment: Cell-based assay, anti-proliferative activity, MELK-negative control (Cell Counting Kit-8, 72 hours). The arrangement: species or system human. The following applies: read-out: IC50 (μM) (HTll97). As to the method:
100 micro-L of cell suspension was seeded onto 96-well microtiter plate (ViewPlate-96FTC, PerkinElmer). The initial cell concentration of 22Rv1, T47D, A549, DU4475, and HT1197 were 3,000 cells/well, 2,000 cells/well and 2,500 cells/well, respectively. Cellular growth was determined using Cell Counting Kit-8 (DOJINDO) at 72 hours after the exposure of the candidate inhibitors. […] Accurate IC50 values were calculated as described previously.

Assay [6] concerns the target MELK (Homo sapiens, UniProt Q14680). As to the kind of experiment: Kinase assay (IMAP fluorescence polarization, FITC-labeled histone H3 peptide). It is filed as biochemical. Conditions: 50 micro-M ATP. Here is the method:
MELK activity was determined in the presence or absence of compounds using fluorescein isothiocyanate-labeled (FITC-labeled) histone H3 peptide as a substrate. […] The serially diluted compounds, 0.8 ng/micro-L […] (Carna Biosciences) and 100 nM FITC-labeled histone H3 peptide were reacted in a reaction buffer (20 mM HEPES, 0.01% Tween-20, 0.3 mM MgCl2, 2 mM dithiothreitol, 50 micro-M ATP, pH 7.4) at room temperature for 1 hour. The reaction was stopped by the addition of three fold assay volume of progressive binding solution. […] IC50 values were calculated by nonlinear four parameter fit using SigmaPlot, version 10.0 (Systat Software, Inc.).
A general note: In fluorescence polarisation assays a small probe gives low polarisation when free and higher when bound to something large.

MELK, sequence (Q14680 whole entry, looked up): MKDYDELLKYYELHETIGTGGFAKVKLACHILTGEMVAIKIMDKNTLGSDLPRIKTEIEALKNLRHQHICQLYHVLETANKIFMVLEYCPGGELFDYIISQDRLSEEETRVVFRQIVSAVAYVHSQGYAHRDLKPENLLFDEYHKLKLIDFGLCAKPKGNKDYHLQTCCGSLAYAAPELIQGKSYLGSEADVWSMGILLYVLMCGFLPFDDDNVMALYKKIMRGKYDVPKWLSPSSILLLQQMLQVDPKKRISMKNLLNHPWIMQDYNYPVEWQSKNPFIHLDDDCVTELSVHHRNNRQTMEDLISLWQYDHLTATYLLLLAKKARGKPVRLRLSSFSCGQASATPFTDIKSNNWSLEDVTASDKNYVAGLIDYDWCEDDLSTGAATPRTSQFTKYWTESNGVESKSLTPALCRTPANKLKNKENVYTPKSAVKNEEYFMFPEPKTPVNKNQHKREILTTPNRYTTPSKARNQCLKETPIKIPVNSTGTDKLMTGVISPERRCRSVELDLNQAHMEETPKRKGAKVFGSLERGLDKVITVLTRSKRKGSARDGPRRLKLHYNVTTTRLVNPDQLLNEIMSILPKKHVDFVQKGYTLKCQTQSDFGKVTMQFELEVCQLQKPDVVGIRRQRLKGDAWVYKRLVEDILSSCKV

As a reminder, the IC50 is the concentration that gives 50% inhibition. `COc1cc(-c2ccc3ncc(S(C)(=O)=O)c(Nc4ccc(OCCN(C)C)nc4)c3n2)cc(Cl)c1O` [Example 26, 2-Chloro-4-(8-(6-(2-(dimethylamino)-ethoxy)pyridin-3-ylamino)-7-(methylsulfonyl)-1,5-naphthyridin-2-yl)-6-methoxyphenol dihydrochloride]: the IC50 in assay [1] (Homo sapiens, T47D, 72 h) is 1 µM; in assay [2] (Homo sapiens, DU-4475, 72 h), 1.6 µM; in assay [3] (Homo sapiens, A549, 72 h), 3.1 µM; in assay [4] (Homo sapiens, 22Rv1, 72 h), 4.1 µM; in assay [5] (Homo sapiens, HT1197, 72 h), 15 µM; in assay [6], 0.01 µM.

In the case of `N[C@H]1CCCN(c2ccc(Nc3c(C(=O)C4CCC4)cnc4ccc(-c5cc(F)c(O)c(Cl)c5)nc34)cn2)C1` [Example 210, (S)-(4-((6-(3-aminopiperidin-1-yl)pyridin-3-yl)amino)-6-(3-chloro-5-fluoro-4-hydroxyphenyl)-1,5-naphthyridin-3-yl)(cyclobutyl)methanone dihydrochloride], the 50% inhibitory concentration (IC50) came out at 0.0093 µM in assay [1] (Homo sapiens, T47D, 72 h); 0.022 µM in assay [2] (Homo sapiens, DU-4475, 72 h); 0.042 µM in assay [3] (Homo sapiens, A549, 72 h); 0.017 µM in assay [4] (Homo sapiens, 22Rv1, 72 h); 1.4 µM in assay [5] (Homo sapiens, HT1197, 72 h); 0.0014 µM in assay [6].

As to `CC(=O)c1cnc2ccc(-c3cc(Cl)c(O)c(Cl)c3)nc2c1N[C@H]1CC[C@H](NC(=O)C(N)C(C)C)CC1` (stereo partly drawn) [Example 79, N-{trans-4-[3-Acetyl-6-(3,5-dichloro-4-hydroxyphenyl)-1,5-naphthyridin-4-ylamino]-cyclohexyl}-2-amino-3-methylbutanamide dihydrochloride], the IC50 was 0.018 µM in assay [1] (Homo sapiens, T47D, 72 h); 0.016 µM in assay [2] (Homo sapiens, DU-4475, 72 h); 0.11 µM in assay [3] (Homo sapiens, A549, 72 h); 0.038 µM in assay [4] (Homo sapiens, 22Rv1, 72 h); 3.9 µM in assay [5] (Homo sapiens, HT1197, 72 h); 0.0016 µM in assay [6].

As for `CCC(=O)c1cnc2ccc(-c3cc(Cl)c(O)c(Cl)c3)nc2c1Nc1ccc(N2CCC[C@H](N)C2)nc1` [Example 207, (S)-1-(4-{[6-(3-aminopiperidin-1-yl)pyridin-3-yl]amino}-6-(3,5-dichloro-4-hydroxyphenyl)-1,5-naphthyridin-3-yl)propan-1-one trihydrochloride], the IC50 was found to be 0.018 µM in assay [1] (Homo sapiens, T47D, 72 h); 0.024 µM in assay [2] (Homo sapiens, DU-4475, 72 h); 0.098 µM in assay [3] (Homo sapiens, A549, 72 h); 0.034 µM in assay [4] (Homo sapiens, 22Rv1, 72 h); 3.9 µM in assay [5] (Homo sapiens, HT1197, 72 h); 0.0016 µM in assay [6].

Turning to `CC(=O)c1cnc2ccc(-c3cc(F)c(O)c(Cl)c3)nc2c1NC1CCN(C)CC1` [Example 46, 1-{6-(3-Chloro-5-fluoro-4-hydroxyphenyl)-4-[(1-methylpiperidin-4-yl)amino]-1,5-naphthyridin-3-yl}ethanone], the concentration for half-maximal inhibition (IC50) in assay [1] (Homo sapiens, T47D, 72 h) was determined as 0.092 µM; in assay [2] (Homo sapiens, DU-4475, 72 h), 0.14 µM; in assay [3] (Homo sapiens, A549, 72 h), 0.098 µM; in assay [4] (Homo sapiens, 22Rv1, 72 h), 0.14 µM; in assay [5] (Homo sapiens, HT1197, 72 h), 0.53 µM; in assay [6], 0.0061 µM.

On to `CC(=O)c1cnc2ccc(-c3cc(F)c(O)c(Cl)c3)nc2c1Nc1ccc(N2CCCC(N)C2)nc1` (centres unmarked) [Example 65, 1-(4-{[6-(3-Aminopiperidin-1-yl)pyridin-3-yl]amino}-6-(3-chloro-5-fluoro-4-hydroxyphenyl)-1,5-naphthyridin-3-yl)ethanone trihydrochloride], for which the IC50 in assay [1] (Homo sapiens, T47D, 72 h) was 0.0047 µM; in assay [2] (Homo sapiens, DU-4475, 72 h) it was 0.015 µM; in assay [3] (Homo sapiens, A549, 72 h), 0.021 µM; in assay [4] (Homo sapiens, 22Rv1, 72 h), 0.013 µM; in assay [5] (Homo sapiens, HT1197, 72 h), 0.74 µM; in assay [6], 0.0031 µM.

With `CN(C)C[C@H]1CC[C@H](Nc2c(S(C)(=O)=O)cnc3ccc(-c4cc(Cl)c(O)c(Cl)c4)nc23)CC1` [Example 12, 2,6-Dichloro-4-(8-{trans-4-[(dimethylamino)methyl]cyclohexylamino}-7-(methylsulfonyl)-1,5-naphthyridin-2-yl)phenol dihydrochloride], the half-inhibitory concentration (IC50) in assay [1] (Homo sapiens, T47D, 72 h) stood at 0.019 µM; in assay [2] (Homo sapiens, DU-4475, 72 h) it was 0.0045 µM; in assay [3] (Homo sapiens, A549, 72 h), 0.053 µM; in assay [4] (Homo sapiens, 22Rv1, 72 h), 0.019 µM; in assay [5] (Homo sapiens, HT1197, 72 h), 0.46 µM; in assay [6], 0.001 µM.

Consider “1-[6-(3,5-Dichloro-4-hydroxyphenyl)-4-(trans-4-hydroxycyclohexylamino)-1,5-naphthyridin-3-yl]-ethanone hydrochloride [Example 91]”, for which the IC50 in assay [1] (T47D cells, 72 hours) was found to be 0.038 µM; in assay [2] (DU4475 cells, 72 hours), 0.016 µM; in assay [3] (A549 cells, 72 hours), 0.048 µM; in assay [4] (22Rv1 cells, 72 hours) it was 0.072 µM; in assay [5] (HT1197 cells (MELK-negative control), 72 hours), 0.33 µM; in assay [6] it was 0.015 µM.

As for `CN(C)C[C@H]1CC[C@H](Nc2c(S(C)(=O)=O)cnc3ccc(-c4cc(F)c(O)c(Cl)c4)nc23)CC1` [Example 13, 6-(3-Chloro-5-fluoro-4-hydroxyphenyl)-4-({trans-4-[(dimethylamino)methyl]cyclohexyl}-amino)-3-methylsulfonyl-1,5-naphthyridine dihydrochloride], the IC50 in assay [1] (Homo sapiens, T47D, 72 h) is 0.013 µM; in assay [2] (Homo sapiens, DU-4475, 72 h), 0.0068 µM; in assay [3] (Homo sapiens, A549, 72 h), 0.073 µM; in assay [4] (Homo sapiens, 22Rv1, 72 h), 0.019 µM; in assay [5] (Homo sapiens, HT1197, 72 h), 0.32 µM; in assay [6], 0.0014 µM.

Consider `CCC(=O)c1cnc2ccc(-c3cc(F)c(O)c(Cl)c3)nc2c1Nc1ccc(N2CCC[C@H](N)C2)nc1` [Example 208, (S)-1-(4{[6-(3-aminopiperidin-1-yl)pyridin-3-yl]amino}-6-(3-chloro-5-fluoro-4-hydroxyphenyl)-1,5-naphthyridin-3-yl)propan-1-one trihydrochloride], for which the IC50 in assay [1] (Homo sapiens, T47D, 72 h) was found to be 0.015 µM; in assay [2] (Homo sapiens, DU-4475, 72 h), 0.021 µM; in assay [3] (Homo sapiens, A549, 72 h), 0.063 µM; in assay [4] (Homo sapiens, 22Rv1, 72 h) it was 0.026 µM; in assay [5] (Homo sapiens, HT1197, 72 h), 0.86 µM; in assay [6], 0.0026 µM.

As for `CC(C)C(=O)c1cnc2ccc(-c3cc(Cl)c(O)c(Cl)c3)nc2c1N[C@H]1CC[C@H](CN(C)C)CC1` [Example 216, 1-[6-(3,5-dichloro-5-4-hydroxyphenyl)-4-({trans-4-[(dimethylamino)methyl]cyclohexyl}amino)-1,5-naphthyridin-3-yl]-2-methylpropan-1-one dihydrochloride], the half-inhibitory concentration (IC50) turned out to be 0.012 µM in assay [3] (Homo sapiens, A549, 72 h); 0.025 µM in assay [5] (Homo sapiens, HT1197, 72 h); 0.0019 µM in assay [6].

For the molecule `CC(=O)c1cnc2ccc(-c3cc(Cl)c(O)c(Cl)c3)nc2c1N[C@H]1CC[C@@H](CN(C)C)CC1` [Example 94, 1-{6-(3,5-Dichloro-4-hydroxyphenyl)-4-({cis-4-[(dimethylamino)methyl]-cyclohexyl}amino)-1,5-naphthyridin-3-yl}ethanone dihydrochloride], the IC50 in assay [1] (Homo sapiens, T47D, 72 h) was determined as 0.02 µM; in assay [2] (Homo sapiens, DU-4475, 72 h) it was 0.0073 µM; in assay [3] (Homo sapiens, A549, 72 h), 0.039 µM; in assay [4] (Homo sapiens, 22Rv1, 72 h) it was 0.028 µM; in assay [5] (Homo sapiens, HT1197, 72 h), 0.25 µM.

For `CC(=O)c1cnc2ccc(-c3cc(Cl)c(O)c(Cl)c3)nc2c1NC[C@H]1CC[C@H](N(C)C)CC1` [Example 89, dihydrochloride], the IC50 in assay [1] (Homo sapiens, T47D, 72 h) stood at 0.023 µM; in assay [2] (Homo sapiens, DU-4475, 72 h), 0.0063 µM; in assay [3] (Homo sapiens, A549, 72 h), 0.041 µM; in assay [4] (Homo sapiens, 22Rv1, 72 h) it was 0.028 µM; in assay [5] (Homo sapiens, HT1197, 72 h) it was 0.9 µM.

Turning to `CC(C)C(=O)c1cnc2ccc(-c3cc(F)c(O)c(Cl)c3)nc2c1N[C@H]1CC[C@H](CN(C)C)CC1` [Example 217, dihydrochloride], the IC50 came to 0.021 µM in assay [3] (Homo sapiens, A549, 72 h); 0.055 µM in assay [5] (Homo sapiens, HT1197, 72 h); 0.0018 µM in assay [6].

For the molecule `[2H]C([2H])([2H])N(C[C@H]1CC[C@H](Nc2c(C(C)=O)cnc3ccc(-c4cc(Cl)c(O)c(Cl)c4)nc23)CC1)C([2H])([2H])[2H]` [Example 28, 1-(6-(3,5-Dichloro-4-hydroxyphenyl)-4-(trans-4-((dimethylamino-d6)methyl)-cyclohexylamino)-1,5-naphthyridin-3-yl)ethanone dihydrochloride], the IC50 in assay [1] (Homo sapiens, T47D, 72 h) was 0.004 µM; in assay [2] (Homo sapiens, DU-4475, 72 h), 0.0022 µM; in assay [3] (Homo sapiens, A549, 72 h), 0.006 µM; in assay [4] (Homo sapiens, 22Rv1, 72 h), 0.0052 µM; in assay [5] (Homo sapiens, HT1197, 72 h), 0.14 µM.

In the case of `CC(=O)c1cnc2ccc(-c3cc(F)c(O)c(Cl)c3)nc2c1N[C@H]1CC[C@H](NC(=O)[C@@H]2CCCN2)CC1` [Example 76, (S)—N-{4-[3-Acetyl-6-(3-chloro-5-fluoro-4-hydroxyphenyl)-1,5-naphthyridin-trans-4-ylamino]-cyclohexyl}pyrrolidine-2-carboxamide dihydrochloride], the IC50 in assay [1] (Homo sapiens, T47D, 72 h) came to 0.03 µM; in assay [2] (Homo sapiens, DU-4475, 72 h), 0.019 µM; in assay [3] (Homo sapiens, A549, 72 h), 0.32 µM; in assay [4] (Homo sapiens, 22Rv1, 72 h), 0.073 µM; in assay [5] (Homo sapiens, HT1197, 72 h), 8.7 µM.
